# Measured values published in patent US9649324B2, “Use of tylvalosin as antiviral agent” (ECO ANIMAL HEALTH LIMITED, priority 2006, dated 2017).
# How the values were obtained:
# [1] = in vivo; cited from earlier work
# PRRSV [2] = assay: Inhibitors of PRRSV infection added at various times pre and post infection (Example 7); assay type: cell-based; conditions: for PRRSV spread / initial PRRSV infection (initial site of infection): added 2 or 4 hours after infection
# EAV = assay: Sensitivity to chloroquine (Example 8), EAV
# PRRSV [3] = test system: PRRSV
# PRRSV [4] = assay: Effect of macrolides on PRRSV (background statement)
# endosomal pH = assay: Acridine orange assay of endosomal pH (Example 13); assay type: cell-based; conditions: acridine orange stained endosomes, any cell line
# Protocol: Acridine orange is a dye that causes cells to fluoresce green with the exception of acidic compartments (such as endosomes) that appear red—due to the protonation of the dye and quenching of the green fluorescence. A substance that raises the endosomal pH will prevent the appearance of the red fluorescence. The effect of Aivlosin® and other macrolide antibiotics on a the staining of endosomes by acridine orange in number of cells lines was determined (see FIG. 19). An area of cells grown on a glass coverslip is first selected using a DAPI stain. […] This selection procedure helps reduce any bias in the results. The green and red filters on the epifluorescence microscope were then used to examine about 20 cells. The number of red spots (endosome vesicles) in was determined. The average number of Acridine orange stained endosomes was counted.
# HRT-18 cells = assay: Intracellular accumulation of macrolides in HRT-18 cells; assay type: in vitro ADME, human; conditions: for intracellular:extracellular ratio: human, 10 μg/mL
# Protocol: HRT-18 cells, in 6 cm tissue cultures dishes, were incubated in the presence of 0.5, 5 or 50 μg/mL tylvalosin. After 4 h, two dishes for each tylvalosin concentration and two dishes without antibiotic were removed from the incubator. A sample of medium (about 1 mL) was removed, placed in a labelled Eppendorf tube and stored at −20° C. The rest of the medium was then removed. Each of the cell monolayers was washed twice in PBS, using approximately 5 mL for each wash. The plunger from a 2 mL plastic syringe was used to gently scrape off the cells. PBS (500 μL) was added to the dish and the cells gently removed into this medium, using a micropipette. The sample was then placed in an Eppendorf tube and centrifuged at 8000×g in a bench centrifuge (Biofuge pico, Heraeus instruments) for 13 sec. An obvious cell pellet formed. The supernatant was removed using a micropipette and the cell material was stored at −20° C. in a labelled Eppendorf tube. After approximately 24 h the remaining tissue culture dishes were removed from the incubator and treated as described above for the 4 h samples. All the samples, including the 4 h samples, were then stored at −70° C.
# HRT-18 cells were prepared as described above and used at passage 42. Stock solutions of antibiotics (either tylvalosin, tylosin or tilmicosin) were diluted in growth media and 10 μg/mL each antibiotic was added to the confluent cell monolayers. The cells were incubated at 37° C. in a 5% CO2 atmosphere for either 4 h or 24 h. The media and cells were harvested and tested for antibiotic, as described above.
# (§1) All the supernatant and cell samples were transported frozen (at approximately −20° C.) to York Bioanalytical Solutions (York, England) for analysis. Briefly, 0.25 g of buffer (RPMI medium containing 10% FCS) was weighed into a polypropylene tube. A 50 μL volume of the appropriate working solution was added to the quality control (QC) samples. Methanol (50 μL) was added to each blank sample used for preparation of calibration standards, recovery samples and reagent blanks. A 2.5 mL volume of 0.1 M phosphate buffer was added to each sample, vortex mixed for approximately 1 min and then centrifuged at 3220×g for 10 min at 4° C.
# (§2) For the liquid-liquid clean-up phase, an aliquot (100 μL) of the supernatant was transferred to a polypropylene tube. The pH was adjusted to pH 8-8.5 by the addition of 0.1 M NaOH, and vortex mixed. Ethyl acetate (5 mL) was added and after capping, the whole mixture was shaken for 10 min and then centrifuged at 3220×g for 10 min at 4° C.
# (§3) Ammonium acetate (20 mM; pH native)—formic acid, 1000:3, v/v (100 μL) was added to each well in a 2 mL polypropylene collection plate. An aliquot of the ethyl acetate mixture (100 μL) was transferred to the polypropylene collection plate and evaporated under nitrogen (40° C.) until the ethyl acetate was fully evaporated whilst the ammonium acetate remained. Methanol (100 μL) was added to each well, excluding the calibration standards.
# (§4) To each well containing a calibration standard, 100 μL of the appropriate calibration working solution was added. Samples were then vortex mixed for at least 10 min and submitted for liquid chromatography with tandem mass spectrometric analysis. The method stated was applicable to the samples of media (and the calibration standards and quality control samples).
# (§5) For the cells, the sample tubes were weighed, and 100 μL of acetonitrile was added. The samples were vortex mixed for 10 sec, then centrifuged at 10285×g at 4° C. for 5 min. The sample was transferred to a polypropylene tube. The original sample tube was washed with 0.1 M phosphate buffer (1 mL). This was transferred to the polypropylene tube. A second wash of 1 mL was made, then a final wash of 0.5 mL. The polypropylene tube was now at the same stage as the end of the liquid extraction, but with the cells present rather than media. This was then taken through the sample preparation as described above. […]
# [5] = test system: VR2332 (US strain of PRRSV); assay: VR2332 (US strain of PRRSV) entry assay in MA104 cells (Example 10); conditions: 4 h pretreatment, moi 10, overnight
# LLC-PK1 cells = assay: Intracellular accumulation in pig kidney epithelial cells; assay type: in vitro ADME; conditions: pig, 75 min, 10 μg/mL
# Protocol: LLC-PKI cells in 6 cm^2 plastic tissue culture dishes were incubated with 10 μg/mL of the different macrolides. Cells and medium were harvested as described above at 30, 75 and 120 min.
# as §1, §2, §3, §4
# (§6) For the cells, the sample tubes were weighed, and 100 μL of acetonitrile was added. The samples were vortex mixed for 10 sec, then centrifuged at 10285×g at 4° C. for 5 min. The sample was transferred to a polypropylene tube. The original sample tube was washed with 0.1 M phosphate buffer (1 mL). This was transferred to the polypropylene tube. A second wash of 1 mL was made, then a final wash of 0.5 mL. The polypropylene tube was now at the same stage as the end of the liquid extraction, but with the cells present rather than media. This was then taken through the sample preparation as described above. The original sample tubes were allowed to dry (i.e. any remaining solvent evaporated off) and were then reweighed to determine the weight of cells in the sample, to allow the concentration per gram of cells to be determined.
# Caco-2 cells = assay: Intracellular accumulation and trans-epithelial transport in polarised Caco-2 cells; assay type: in vitro ADME, human; conditions: human, Caco-2, 240 min, 10 μg/mL
# Protocol: Caco-2 cells were seeded at a density of 0.8×10^6 cells per well of a Transwell Clear filter 6 well plate, 0.4 μm pore size. The cells were incubated with 2 mL medium in both apical and basolateral chambers. This medium was replaced every 2 days for 10-14 days. Transepithelial resistance was measured using Millicell ERS apparatus (Millipore) at day 7, 10 and/or 14 in order to identify when the cells had become polarised. Readings of >1000 Ω were indicative of polarised cells. […]
# as §1, §2, §3, §4, §6
# [6] = test system: chicken white blood cells; assay: Intracellular accumulation in chicken white blood cells; assay type: in vitro ADME; parameters: intracellular:extracellular ratio, variation during the experimental time period: dose or concentration left out as unconfirmed; conditions: chicken
# Protocol: Pig blood was collected in Heparin-coated BD vacutainers (6). 20 mL of blood and 30 mL of phosphate buffered saline (PBS) were mixed in a 50 mL conical centrifuge tube. This was repeated in order to obtain 3 such tubes. The mixtures were centrifuged for 10 min at 2050×g. The white blood cells, together with some red blood cells below, were harvested into a 50 mL conical centrifuge tube. PBS was added to about 50 mL. A 63% solution of Percoll was made as follows: 6.3 mL Percoll (Sigma), 1.0 mL 1.5 M NaCl, 2.7 mL H2O. 10 mL of 63% Percoll was added to each of two 50 mL conical centrifuge tubes. 25 mL of the resuspended white blood cells were carefully layered on top of the each of the Percoll solutions. A sharp interface was produced. The material was centrifuged at 3000×g for 10 min. […] The white blood cells were harvested in PBS (50 mL) and centrifuged at 500×g for 10 min. The cell pellet was resuspended in medium (Glasgow minimum essential medium containing penicillin and streptomycin). A viable cell count was made using trypan blue. The same method used for isolation of pig WBCs was used for the chicken WBCs, with the exception that heparin (100 I.U./mL) was prepared and mixed with an equal volume of chicken whole blood.
# All tubes were placed on a rotary mixing machine, at 37° C. Supernatant and cell samples were harvested at the times described in the figure legends. Duplicate samples were used for each antibiotic for each time point.
# as §1, §2, §3, §4, §5
# [7] = test system: equine arteritis virus (EAV); assay: Effect on equine arteritis virus infection (Example 6); assay type: cell-based
# Protocol: Experiments were carried out to determine whether tylvalosin has an effect on equine arteritis virus (EAV).
smiles,measurement,setting,value
CC[C@H]1OC(=O)[C@H](C)[C@@H](O[C@H]2C[C@@](C)(OC)[C@@H](O)[C@H](C)O2)[C@H](C)[C@@H](O[C@@H]2O[C@H](C)C[C@H](N(C)C)[C@H]2O)[C@](C)(OC)C[C@@H](C)C(=O)[C@H](C)[C@@H](O)[C@]1(C)O [clarithromycin],"transintestinal elimination, share of the total administered dose",[1],about 10%
C=C1[C@@H](C)[C@H]2[C@H](Cc3ccccc3)NC(=O)[C@]23[C@H](OC(C)=O)/C=C/[C@@](C)(O)C(=O)[C@@H](C)C/C=C/[C@H]3[C@@H]1O [cytochalasin D],PRRSV spread,PRRSV [2],no spread could be detected
same,initial PRRSV infection (initial site of infection),PRRSV [2],no effect
same,initial PRRSV infection,PRRSV [2]; added 4 hours before infection,inhibited
same,initial PRRSV infection,PRRSV [2]; added at the time of infection,inhibited
CCN(CC)CCCC(C)Nc1ccnc2cc(Cl)ccc12 (stereo not drawn) [chloroquine],concentration required to inhibit infection,FCV,≥ 200 µM
same,concentration required to inhibit infection,EAV,≥ 50 µM
same,concentration required to inhibit infection,PRRSV [3],less than 5 μM
same,PRRSV spread,PRRSV [2],no effect
same,initial PRRSV infection (initial site of infection),PRRSV [2],no effect
same,initial PRRSV infection,PRRSV [2]; added 4 hours before infection,inhibited
same,initial PRRSV infection,PRRSV [2]; added at the time of infection,inhibited
CC[C@H]1OC(=O)[C@H](C)[C@@H](O[C@H]2C[C@@](C)(OC)[C@@H](O)[C@H](C)O2)[C@H](C)[C@@H](O[C@@H]2O[C@H](C)C[C@H](N(C)C)[C@H]2O)[C@](C)(O)C[C@@H](C)CN(C)[C@H](C)[C@@H](O)[C@]1(C)O [azithromycin],"transintestinal elimination, share of the total administered dose",[1],30-35%
CC[C@H]1OC(=O)C[C@@H](O)[C@H](C)[C@@H](O[C@@H]2O[C@H](C)[C@@H](O[C@H]3C[C@@](C)(O)[C@@H](O)[C@H](C)O3)[C@H](N(C)C)[C@H]2O)[C@@H](CC=O)C[C@@H](C)C(=O)/C=C/C(C)=C/[C@@H]1CO[C@@H]1O[C@H](C)[C@@H](O)[C@@H](OC)[C@H]1OC [tylosin],effect on PRRSV,PRRSV [4],no effect
same,effect on raising the pH in the endosomes,endosomal pH,did not have much effect
same,intracellular:extracellular ratio,HRT-18 cells; 4 h,less than 1 fold
same,intracellular:extracellular ratio,HRT-18 cells; 24 h,less than 1 fold
same,inhibition of VR2332 infection,[5],not
same,average intracellular concentration,LLC-PK1 cells,2.41 μg/mg cells
same,average intracellular concentration,Caco-2 cells,1.86 μg/mg cells
same,basolateral chamber content as average % of the apical chamber value,Caco-2 cells,0.52%
same,"intracellular:extracellular ratio, variation during the experimental time period",[6],2.65-4.7 fold
same,average intracellular concentration,"[6]; 15 min, 10 μg/mL",10.1 μg/mg cells
same,intracellular concentration,"[6]; 60 min, 10 μg/mL",32.1 μg/mg cells
COC(=O)Nc1nc2ccc(C(=O)c3cccs3)cc2[nH]1 [nocodazole],EAV infection,[7],not blocked
same,initial PRRSV infection (initial site of infection),PRRSV [2],no effect
same,initial PRRSV infection,PRRSV [2]; added 4 hours before infection,inhibited
same,initial PRRSV infection,PRRSV [2]; added at the time of infection,did not inhibit
"CC[C@H]1OC(=O)C[C@@H](OC(C)=O)[C@H](C)[C@@H](O[C@@H]2O[C@H](C)[C@@H](O[C@H]3C[C@@](C)(O)[C@@H](O)[C@H](C)O3)[C@H](N(C)C)[C@H]2O)[C@@H](CC=O)C[C@@H](C)C(=O)/C=C/C(C)=C/C1CO[C@@H]1O[C@H](C)[C@@H](O)[C@@H](OC)[C@H]1OC (stereo partly drawn) [3-acetyltylosin, 3-O-Acetyltylosin]",uptake and accumulation in cells,HRT-18 cells,behave in the same way
CN(C)CCCN1c2ccccc2Sc2ccc(Cl)cc21 [chlorpromazine],PRRSV spread,PRRSV [2],appeared to prevent spread
same,initial PRRSV infection (initial site of infection),PRRSV [2],showed the initial site of infection
same,initial PRRSV infection,PRRSV [2]; added 4 hours before infection,inhibited
same,initial PRRSV infection,PRRSV [2]; added at the time of infection,inhibited
